Measurements from article PMC7297445, “Pharmacokinetic/Pharmacodynamic Determination and Preclinical Pharmacokinetics of the β-Lactamase Inhibitor ETX1317 and Its Orally Available Prodrug ETX0282” (ACS Infectious Diseases, 2020).

How the values were obtained:
[1] = tested on: Enterobacteriaceae isolates; experiment: Hollow-fiber and chemostat models, strains combined; format: cell-based, E. coli, K. pneumoniae
Method: The PK/PD driver of ETX1317 was assessed in the presence of CPD in both hollow-fiber[28]−[31] and chemostat[32]in vitro infection model systems. In all cases, CPD was administered q12h via a 2 h infusion and eliminated with a 2 h half-life, with the concentration of drug exceeding the MIC (the MIC of CPD in the presence of ETX1317 at a 1:2 ratio) for 50% of the dosing interval for each strain. Representative Emax plots are shown graphically for Escherichia coli ARC2687 in the hollow-fiber model and Klebsiella pneumoniae ARC4420 in the chemostat system (Figure 2). […] This could partially be attributed to the distribution of the concentration ranges utilized for the hollow-fiber infection model (HFIM) where most of the data scatter occurred in the efficacious dose range for lower MIC strains. It is important to note that initial evaluation of K. pneumoniae ARC4420 and ARC5118 was completed in the HFIM but rapid degradation of CPD, presumably through accumulation of β-lactamases in the extra-capillary space of the cartridge precluded a reliable assessment of the PK/PD driver with these strains in this model.[32] […] In both the HFIM and chemostat models the optimum critical threshold of ETX1317 was established through iterative Emax fitting of a range of ETX1317 concentrations from 0.5× to 2× the CPD:ETX1317 MIC value. In the HFIM, %Time > ETX1317 CT of 2× MIC provided the highest correlation to observed activity which appeared to be independent to the apparent intrinsic activity of ETX1317 (as reflected by ETX1317 MICBLI of K. pneumoniae ARC4486 vs ARC4488). […] In both models CPD infused alone mimicked vehicle control as expected with similar growth of +2 to 4 log10 CFU/mL.
PK/PD-derived exposure targets for BLIs have utilized various approaches for clinical dose setting. The use of a singular critical threshold value independent of MIC has been used for recent BL/BLI combinations such as ceftazidime/avibactam[34] aztreonam/avibactam,[35] but this has been problematic to correlate activity across a broad range of MICs. More recent work with ceftolozane/tazobactam[36] and other BLI combinations[37],[38] considers a critical threshold value that varies proportionally to the MIC value. […] Convergence of the data to a threshold value related to MIC simplifies dose setting and, in this case, appears to be consistent across a broad range of susceptibility (0.125–1 μg/mL).
Dose range and dose fractionation were performed in hollow-fiber infection model (HFIM) and chemostat (one-compartment) in vitro infection model. […] CPD concentrations were targeted to achieve exposure of ∼50%Time > MIC determined in the presence of ETX1317. […] Bacterial burden (CFU/mL) was serially assessed by sampling (500 μL) from the extra-capillary space of the HFIM cartridge at predetermined time points. […]

[2] = Stability in liver microsomes; format: in vitro ADME
Method: Based upon the non-clinical PK data, a range of 60–80% bioavailability and a moderate absorption rate of 0.5–1.0 h^–1 have been considered for humans. In consideration of these predicted parameters, mean percent fT > CT of 1 μg/mL (2× MIC of 0.5 μg/mL) estimates for a 500 mg ETX1317 equiv q12h dose of ETX0282 are summarized in Table S3.

[3] = Mouse oral pharmacokinetics (satellite infected animals); format: in vivo
[4] = Plasma protein binding; format: in vitro ADME, rat
Method: Plasma protein binding was determined by rapid equilibrium dialysis. Plasma was freshly prepared from blood samples drawn in to EDTA (anticoagulant) containing tubes. Plasma was prepared using a table-top centrifuge and spun per instruction of the tube manufacturer and specifications (Beckton, Dickinson and Company, Franklin Lakes, NJ) and placed on ice prior to use.
Pooled plasma samples were centrifuged at 2000 rpm (approximately 1400g) for 15 min at 4 °C to remove debris. Approximately 90% of the clear supernatant fraction was transferred to a separate tube. Samples (500 μL) were then spiked with a 100× stock solution 100 μM, 0.5 mM, and 10 mM ETX1317 in DMSO respectively for 1, 5, and 100 μM final concentrations, transferred to the top of the filter chambers, and allowed to equilibrate for 15 min prior to centrifugation. The filtrate tubes were centrifuged at 14000g for 15 min at 4 °C. Next, 50 μL of the filtrate was precipitated with 300 μL of acetonitrile containing 250 ng/mL of carbutamide as the internal standard and the samples were analyzed by LC/MS/MS analysis.

[5] = unbound ETX1317 after oral ETX0282 10 mg/kg
[6] = unbound ETX1317 after oral ETX0282 50 mg/kg
[7] = unbound ETX1317 after oral ETX0282 200 mg/kg
[8] = unbound ETX1317 after oral ETX0282 400 mg/kg

CC1=C[C@@H](C(N)=O)N2C[C@@H]1N(O[C@H](F)C(=O)O)C2=O [ETX1317]
growth ([1]; infused alone q12h to a Cmax of 16 μg/mL, 100%Time > MICBLI): +0.5 log | % of dosing interval with unbound concentration > 2× MIC associated with reducing bacterial burden below stasis ([1]; with CPD): 50% | % of dosing interval with concentration > 2× MIC for cidal activity ([1]; with CPD 50%Time > MIC, in vitro and in vivo models): 60% | stability in liver microsomes [2]: Good stability | half-life ([3]; mouse, in vivo, mice, once formed from ETX0282): 1.3 h | %Time > f[CT] 0.25 μg/mL ([3]; oral ETX0282 10 mg/kg): 47% | %Time > f[CT] 0.5 μg/mL ([3]; oral ETX0282 10 mg/kg): 25% | %Time > f[CT] 1.0 μg/mL ([3]; oral ETX0282 10 mg/kg): 12% | %Time > f[CT] 2.0 μg/mL ([3]; oral ETX0282 10 mg/kg): 8% | %Time > f[CT] 0.25 μg/mL ([3]; oral ETX0282 50 mg/kg): 88% | %Time > f[CT] 0.5 μg/mL ([3]; oral ETX0282 50 mg/kg): 50% | %Time > f[CT] 1.0 μg/mL ([3]; oral ETX0282 50 mg/kg): 29% | %Time > f[CT] 2.0 μg/mL ([3]; oral ETX0282 50 mg/kg): 28% | %Time > f[CT] 0.25 μg/mL ([3]; oral ETX0282 200 mg/kg): 100% | %Time > f[CT] 0.5 μg/mL ([3]; oral ETX0282 200 mg/kg): 100% | %Time > f[CT] 1.0 μg/mL ([3]; oral ETX0282 200 mg/kg): 58% | %Time > f[CT] 2.0 μg/mL ([3]; oral ETX0282 200 mg/kg): 35% | %Time > f[CT] 0.25 μg/mL ([3]; oral ETX0282 400 mg/kg): 100% | %Time > f[CT] 0.5 μg/mL ([3]; oral ETX0282 400 mg/kg): 100% | %Time > f[CT] 1.0 μg/mL ([3]; oral ETX0282 400 mg/kg): 75% | %Time > f[CT] 2.0 μg/mL ([3]; oral ETX0282 400 mg/kg): 38% | fAUClast [3, 5]: 4700 ng·h/mL | fCmax [3, 5]: 3.9 µg/mL | fAUClast [3, 6]: 23000 ng·h/mL | fCmax [3, 6]: 21 µg/mL | fAUClast [3, 7]: 61000 ng·h/mL | fCmax [3, 7]: 57 µg/mL | fAUClast [3, 8]: 73000 ng·h/mL | fCmax [3, 8]: 90 µg/mL | Proportion unbound ([4]; 1 µM): 94% | Proportion unbound ([4]; 5 µM): 97% | Proportion unbound ([4]; 100 µM): 83%
